Results reported in US10125118B2, “Heteroaryl compounds and their use as therapeutic drugs” (Dong-A Socio Holdings Co., Ltd., priority 2015, dated 2018).
Read-outs that look alike come from different tables or passages of the source.

What was measured:
[1] = target: human c-MER catalytic domain (Homo sapiens (Human), UniProt Q12866); assay: LanthaScreen TR-FRET kinase assay, c-MER
[2] = test system: CD8-MerTK in Ba/F3-CDM cells; assay: In cell MER kinase assay, Ba/F3-CDM cell proliferation without IL-3 (Celltiter-Glo); format: cell-based, murine; settings: 48 hours compound treatment, read-out: Cell growth inhibition (GI50)
In short: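 Ba/F3 cells, IL-3-dependent, transfected with CD8-MerTK and grown without IL-3 in DMEM/10% FBS. IL-3-supplemented Ba/F3 cells run in parallel as a cytotoxicity control.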

[3] = read-out: Mer TK inhibition (IC50), Biochemical IC50, TR-FRET, 10 uM ATP

Chain of human c-MER catalytic domain (Q12866 587-858): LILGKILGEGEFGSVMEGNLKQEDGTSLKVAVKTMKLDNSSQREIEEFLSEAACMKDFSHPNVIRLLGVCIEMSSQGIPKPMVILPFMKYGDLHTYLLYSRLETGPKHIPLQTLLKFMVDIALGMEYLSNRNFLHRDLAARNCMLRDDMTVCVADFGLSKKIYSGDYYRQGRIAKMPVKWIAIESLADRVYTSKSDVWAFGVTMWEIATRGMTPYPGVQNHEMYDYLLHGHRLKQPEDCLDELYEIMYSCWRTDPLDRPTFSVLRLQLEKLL

| SMILES | IC50 [1, 3] [nM] | GI50 [2] [nM] | IC50 [1] [nM] |
| --- | --- | --- | --- |
| CN1CCN(Cc2ccc(-c3ccc(CO[C@H]4CCC[C@@H]4NC(=O)c4cc(-c5cnn(C)c5)cnc4N)cc3)cc2C(F)(F)F)CC1 [Example 197, 2-amino-5-(1-methyl-1H-pyrazol-4-yl)-N-((1S,2S)-2-((4′-((4-methylpiperazin-1-yl)methyl)-3′-(trifluoromethyl)-[1,1′-biphenyl]-4-yl)methoxy)-cyclopentyl)nicotinamide] | < 10 | < 100 |  |
| CCc1cccc(CO[C@H]2CNC[C@@H]2NC(=O)c2cc(-c3cnn(C)c3)cnc2N)c1 [Example 416, 2-amino-N-((3S,4S)-4-((3-ethylbenzyl)oxy)pyrrolidin-3-yl)-5-(1-methyl-1H-pyrazol-4-yl)nicotinamide] | < 10 | 100 to 500 |  |
| CC(c1ccc(-c2ccc(CO[C@H]3CCC[C@@H]3NC(=O)c3cc(C#N)cnc3N)cc2)cc1)N1CCN(C)CC1 (stereo partly drawn) [Example 233, 2-amino-5-cyano-N-((1S,2S)-2-((4′-(1-(4-methylpiperazin-1-yl)-ethyl)-[1,1′-biphenyl]-4-yl)methoxy)cyclopentyl)nicotinamide] | < 10 | 100 to 500 |  |
| CCc1cc(CO[C@H]2CN(C)C[C@@H]2NC(=O)c2cc(-c3cnn(C)c3)cnc2N)ccc1C [Example 426, 2-amino-N-((3S,4S)-4-((3-ethyl-4-methylbenzyl)oxy)-1-methylpyrrolidin-3-yl)-5-(1-methyl-1H-pyrazol-4-yl)nicotinamide] | < 10 | 500 to 1000 |  |
| Cn1cc(-c2cnc(N)c(C(=O)N[C@H]3CNC[C@@H]3OCc3ccc(-c4ccc(CN5CCN(CCO)CC5)c(C(F)(F)F)c4)cc3)c2)cn1 [Example 444, 2-amino-N-((3S,4S)-4-((4′-((4-(2-hydroxyethyl)piperazin-1-yl)-methyl)-3′-(trifluoromethyl)-[1,1′-biphenyl]-4-yl)methoxy)pyrrolidin-3-yl)-5-(1-methyl-1H-pyrazol-4-yl)nicotinamide] | < 10 | > 1000 |  |
| CN1CCN(C(C)(C)c2ccc(-c3ccc(CO[C@H]4CCC[C@@H]4NC(=O)c4cc(-c5ccc(F)nc5)cnc4N)cc3)cc2)CC1 [Example 225, 6-amino-6′-fluoro-N-((1S,2S)-2-((4′-(2-(4-methylpiperazin-1-yl)propan-2-yl)-[1,1′-biphenyl]-4-yl)methoxy)cyclopentyl)-[3,3′-bipyridine]-5-carboxamide] | < 10 | 100 to 500 |  |
| Cn1cc(-c2cnc(N)c(C(=O)N[C@H]3CCC[C@@H]3OCc3ccc(-c4ccc(CN5CCNCC5)cc4)cc3)c2)cn1 [Example 177, 2-amino-5-(1-methyl-1H-pyrazol-4-yl)-N-((1S,2S)-2-((4′-(piperazin-1-ylmethyl)-[1,1′-biphenyl]-4-yl)methoxy)cyclopentyl)nicotinamide] | < 10 | 100 to 500 |  |
| CN1CCN(Cc2ccc(-c3ccc(CO[C@H]4CCC[C@@H]4NC(=O)c4cc(-c5ccc(CN6CCOCC6)cc5)cnc4N)cc3)cc2)CC1 [Example 379, 2-amino-N-((1S,2S)-2-((4′-((4-methylpiperazin-1-yl)methyl)-[1,1′-biphenyl]-4-yl)methoxy)cyclopentyl)-5-(4-(morpholinomethyl)phenyl)nicotinamide] | < 10 | < 100 |  |
| Cn1cc(-c2cnc(N)c(C(=O)N[C@H]3CCC[C@@H]3OCc3ccc(-c4ccc(CC5CCN(CCO)CC5)cc4)cc3)c2)cn1 [Example 240, 2-amino-N-((1S,2S)-2-((4′-((1-(2-hydroxyethyl)piperidin-4-yl)-methyl)-[1,1′-biphenyl]-4-yl)methoxy)cyclopentyl)-5-(1-methyl-1H-pyrazol-4-yl)-nicotinamide] | < 10 | < 100 |  |
| CN1CCN(Cc2ccc(-c3ccc(CO[C@H]4CN(C)C[C@@H]4NC(=O)c4cc(-c5cnn(C)c5)cnc4N)cc3)cc2)CC1 [Example 435, 2-amino-5-(1-methyl-1H-pyrazol-4-yl)-N-((3S,4S)-1-methyl-4-((4′-((4-methylpiperazin-1-yl)methyl)-[1,1′-biphenyl]-4-yl)methoxy)pyrrolidin-3-yl)-nicotinamide] | < 10 | 100 to 500 |  |
| C[C@H](c1ccc(-c2ccc(CO[C@H]3CCC[C@@H]3NC(=O)c3cc(-c4cnn(C)c4)cnc3N)cc2)cc1)N1CCNCC1 [Example 213, 2-amino-5-(1-methyl-1H-pyrazol-4-yl)-N-((1S,2S)-2-((4′-((R)-1-(piperazin-1-yl)ethyl)-[1,1′-biphenyl]-4-yl)methoxy)cyclopentyl)nicotinamide] | < 10 | 100 to 500 |  |
| Cc1ccc(CO[C@H]2CNC[C@@H]2NC(=O)c2cc(-c3cnn(C)c3)cnc2N)cc1 [Example 415, 2-amino-5-(1-methyl-1H-pyrazol-4-yl)-N-((3S,4S)-4-((4-methylbenzyl)oxy)pyrrolidin-3-yl)nicotinamide] | < 10 | > 1000 |  |
| CCc1cc(CO[C@H]2CNC[C@@H]2NC(=O)c2cc(-c3cccnc3)cnc2N)ccc1C [Example 396, 6-amino-N-((3S,4S)-4-((3-ethyl-4-methylbenzyl)oxy)pyrrolidin-3-yl)-[3,3′-bipyridine]-5-carboxamide] | < 10 | > 1000 |  |
| CCc1cc(CO[C@H]2CNC[C@@H]2NC(=O)c2cc(-c3ccc(C=O)cc3)cnc2N)ccc1C [Example 399, 2-amino-N-((3S,4S)-4-((3-ethyl-4-methylbenzyl)oxy)pyrrolidin-3-yl)-5-(4-formylphenyl)nicotinamide] |  | 500 to 1000 | < 10 |
| CNc1ccc(-c2ccc(CO[C@H]3CCC[C@@H]3NC(=O)c3cc(-c4cnn(C)c4)cnc3N)cc2)cc1 [Example 136, 2-amino-5-(1-methyl-1H-pyrazol-4-yl)-N-((1S,2S)-2-((4′-(methylamino)-[1,1′-biphenyl]-4-yl)methoxy)cyclopentyl)nicotinamide] | < 10 | 100 to 500 |  |
| CCc1cc(CO[C@H]2CNC[C@@H]2NC(=O)c2cc(-c3ccc(CC#N)cc3)cnc2N)ccc1C [Example 411, 2-amino-5-(4-(cyanomethyl)phenyl)-N-((3S,4S)-4-((3-ethyl-4-methylbenzyl)oxy)pyrrolidin-3-yl)nicotinamide] | < 10 | 100 to 500 |  |
| Cc1cccc(C)c1CO[C@H]1CCC[C@@H]1NC(=O)c1cc(-c2cnn(C)c2)cnc1N [Example 15, 2-amino-N-((1S,2S)-2-((2,6-dimethylbenzyl)oxy)cyclopentyl)-5-(1-methyl-1H-pyrazol-4-yl)nicotinamide] | > 1000 | > 1000 |  |
| CN1CCN(Cc2ccc(-c3ccc(CO[C@H]4CCC[C@@H]4NC(=O)c4nc(-c5cnn(C)c5)cnc4N)cc3)cc2)CC1 [Example 194, 3-amino-6-(1-methyl-1H-pyrazol-4-yl)-N-((1S,2S)-2-((4′-((4-methylpiperazin-1-yl)methyl)-[1,1′-biphenyl]-4-yl)methoxy)cyclopentyl)pyrazine-2-carboxamide] | < 10 | < 100 |  |
| Cn1cc(-c2cnc(N)c(C(=O)N[C@H]3CCC[C@@H]3OCc3ccc(-c4ccc(CN5CCC(O)CC5)cc4)cc3)c2)cn1 [Example 180, 2-amino-N-((1S,2S)-2-((4′-((4-hydroxypiperidin-1-yl)methyl)-[1,1′-biphenyl]-4-yl)methoxy)cyclopentyl)-5-(1-methyl-1H-pyrazol-4-yl)nicotinamide] | < 10 | > 1000 |  |
